Source: patent publication US9963463B2, “Urea-substituted indanes as P38 map kinase inhibitors” (TORRENT PHARMACEUTICALS LIMITED, priority 2014, dated 2018)

Experiments:
[1] = target: T1, purified recombinant human p38 alpha MAPK (Homo sapiens, UniProt Q16539); test: Inhibition of p38 alpha MAPK activity, TR-FRET kinase assay; assay type: biochemical; settings: Concentration 1 μM; read-out: P38α Inhibition
T1 construct: purchased Millipore, USA
Outline: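 Recombinant human p38α preincubated 15 min at RT with compound (0.5–1.0% DMSO), then 30 nM biotinylated GST-ATF2 and 100 μM ATP added for 60 min at RT. Stopped with EDTA; Eu-anti-phospho-ATF2 and APC-streptavidin detection, 60 min. % inhibition from 665/615 nm TR-FRET ratio.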

[2] = tested on: cigarette smoke induced inflammatory cell accumulation in BAL Fluid; test: Acute guinea pig model of airway inflammation (tobacco smoke), BAL neutrophils; assay type: in vivo, Guinea pigs; settings: acute TS model, 6 mg/ml, aerosol exposure 75 minutes
Source text: Observation: It was observed that compound of present invention was found effective in inhibition of neutophil influx, an index of pulmonary inflammation. […] B. (I) Efficacy Studies in Acute Guinea Pig Model of Airway Inflammation
Guinea pigs were exposed to tobacco smoke (TS) in an acrylic chamber. Animals were exposed to TS from 5, 10, 15 cigarettes on day 1, day 2, day 3 respectively. From day 4 onwards till day 11, animals were exposed to TS from 15 cigarettes per day. […]
Lung delivery of test compound was achieved by whole body aerosol exposure for 75 minutes in a chamber. […] A total quantity of 7.0 ml of either vehicle or test compound formulation (suspension formulation with D90<5μ, with Malvern Mastersizer®) was nebulized in chambers to respective groups over 75 mins period. […]
(§1) Lavage fluid was separated from cells by centrifugation and supernatant separated. […] Cells in aliquot were stained using Turk solution and total cell numbers were calculated by counting Turk stained aliquot under microscope using haemocytometer.
The residual cell suspension was resuspended and slides prepared using cyto centrifuge technique (Cytospin 4, Thermo Shandon). […] Up to 300 cells were counted and differentiated using standard morphometric techniques under light microscopy. All results are presented at individual data for each animal and mean value calculated for each group. […]

[3] = tested on: BALF fluid inflammatory cell influx and lung function; test: Chronic model of COPD in guinea pigs (tobacco smoke and LPS, 18 weeks); assay type: in vivo; settings: guinea pig, chronic TS/LPS COPD model, 3 mg/ml, aerosol exposure 50 minutes
Source text: Observation: It was observed that compound of present invention was found effective in inhibition of neutrophil influx, an index of pulmonary inflammation in guinea pig model of airway inflammation. […] (II) Efficacy Studies in Chronic Model of COPD in Guinea Pigs.
Guinea pigs were exposed to tobacco smoke (TS) and Lipopolysaccharide (LPS) in an acrylic chamber. Exposure to TS and LPS is given in following manner in a week for a total of 18 weeks.
Lung delivery of test material was achieved by whole body aerosol exposure for 50 minutes in a chamber. Guinea pig were divided in different dose groups and exposed to either vehicle or compound no 43 (3 mg/ml). A total quantity of 7.0 ml of either vehicle or compound no 43 (suspension formulation with D90<5μ, with Malvern Mastersizer®) was nebulized in chambers to respective groups over 50 mins period. Compound no 43 or vehicle was administered 2 hr prior to TS/LPS exposure once daily from week 9 to week 18. Control animals were exposed to room air instead of TS and PBS instead of LPS. Lung function and bronchoalveolar lavage (BAL) for each animal was performed 24 hr post last TS exposure. […]
as §1
The residual cell suspension was resuspended and slides prepared using cyto centrifuge technique (Cytospin 4, Thermo Shandon). […] Up to 300 cells were counted and differentiated using standard morphometric techniques under light microscopy.
All results are presented at individual data for each animal and mean value calculated for each group. Percentage inhibition for the neutrophil was calculated for compound no 43 treatment group against vehicle group. […]

T1 sequence (Q16539 whole entry): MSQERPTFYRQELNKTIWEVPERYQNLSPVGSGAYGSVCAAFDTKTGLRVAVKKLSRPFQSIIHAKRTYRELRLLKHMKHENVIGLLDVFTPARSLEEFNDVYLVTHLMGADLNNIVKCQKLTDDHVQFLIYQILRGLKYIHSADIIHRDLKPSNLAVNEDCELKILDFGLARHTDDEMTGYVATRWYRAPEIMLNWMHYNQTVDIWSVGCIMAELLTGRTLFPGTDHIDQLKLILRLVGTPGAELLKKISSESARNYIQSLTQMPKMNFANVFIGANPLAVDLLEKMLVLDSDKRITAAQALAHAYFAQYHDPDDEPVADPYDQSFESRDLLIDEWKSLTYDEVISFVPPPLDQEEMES

CCS(=O)(=O)Nc1cc(C(C)(C)C)cc(NC(=O)Nc2ccc(OCCN3CCN(CC4CC4)C(=O)C3)c3c2CCC3)c1OC [Compound 43, N-(5-tert-butyl-3-{[(7-{2-[4-(cyclopropylmethyl)-3-oxopiperazin-1-yl]ethoxy}-2,3-dihydro-1H-inden-4-yl)carbamoyl]amino}-2-methoxyphenyl)ethanesulfonamide]
inhibition at 1 µM [1]: 80 to 100%
Effect on inflammatory cell influx Neutrophil (*10^6cells) ([2]; BAL fluid, Mean ± SEM): 0.8 ± 0.20 *10^6cells
Effect on inflammatory cell influx % inhib^n ([2]; neutrophil vs vehicle group): 57%
Neutrophil (*10^6cells) ([3]; BALF, once daily week 9 to 18, Mean ± SEM): 4.0 ± 0.70 *10^6cells
lung function parameters (FRC, RV, IC/TLC ratio, RV/TLC ratio) ([3]; FIGS. 1A, 1B, 2A, 2B): significantly improves lung function aspects
% inhib^n ([3]; neutrophil vs vehicle group): 32%
